Measured values from patent publication US20260174784A1, “Molecular Signatures that Predict Risk for Development of Hepatic Encephalopathy” (The Regents of the University of California, priority 2022, published 2026).

Columns and labels:
hepatic encephalopathy = assay: HE treatment of readmitted TIPS participant 11_a (case course); type: in vivo, human; conditions: for response to HE treatment: first readmission 9 days post-TIPS, lactulose and rifaximin given together
Excerpt: After the data were collected, the hospital courses of the two participants who were readmitted during the study period were examined. Participant 11_a (FIG. 6C) was a person with a history of cryptogenic cirrhosis with banded esophageal varices but with no prior history of HE. They underwent TIPS procedure due to progressively worsening ascites refractory to diuretic therapy and need for intermittent paracentesis. They were readmitted to the medical intensive care unit 9 days post-TIPS with obtundation requiring intubation for airway protection. Blood was drawn on the day of admission before initiation of hepatic encephalopathy treatment (pre-HET) (FIG. 6C). […] Blood was collected for analysis on the day after treatment initiation (post-HET) (FIG. 6C). They were discharged 9 days later. However, they were readmitted within 72 hours for altered mental status. […] Their encephalopathy resolved after continuous polyethylene glycol infusion via nasojejunal tube, but was again admitted 352 days post-TIPS for HE in the setting of urosepsis.

[1] = biological target: T1, farnesoid X receptor (FXR) (Homo sapiens, UniProt Q96RI1); conditions: ligand-mediated nuclear receptor; literature ref 48; cited from earlier work
T1 sequence (Q96RI1 1-486): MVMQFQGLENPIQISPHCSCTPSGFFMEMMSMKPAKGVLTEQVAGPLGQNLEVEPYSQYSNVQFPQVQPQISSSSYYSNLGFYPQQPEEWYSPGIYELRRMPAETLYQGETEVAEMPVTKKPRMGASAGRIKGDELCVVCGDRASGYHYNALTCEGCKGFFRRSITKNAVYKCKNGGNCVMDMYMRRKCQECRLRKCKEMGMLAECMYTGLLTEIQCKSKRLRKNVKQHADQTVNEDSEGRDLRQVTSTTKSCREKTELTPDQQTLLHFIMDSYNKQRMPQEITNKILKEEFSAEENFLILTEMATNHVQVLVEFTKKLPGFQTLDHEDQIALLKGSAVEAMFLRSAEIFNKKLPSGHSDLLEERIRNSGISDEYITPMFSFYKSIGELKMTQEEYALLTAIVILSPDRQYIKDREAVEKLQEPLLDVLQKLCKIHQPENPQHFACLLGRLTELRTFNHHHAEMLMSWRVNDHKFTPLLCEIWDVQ

[2] = test system: neuronal oxidative damage induced by bilirubin; conditions: supplementation with GUDCA; previous studies in animal models; cited from earlier work

polyethylene glycol
encephalopathy outcome (hepatic encephalopathy; second readmission, continuous infusion via nasojejunal tube): resolved

OC[C@H]1O[C@@H](O[C@@H]2[C@@H](CO)OC(O)(CO)[C@H]2O)[C@H](O)[C@@H](O)[C@H]1O (mixture of isomers) [lactulose]
response to HE treatment (hepatic encephalopathy): responded well

C[C@H](CCC(=O)NCC(=O)O)[C@H]1CC[C@H]2[C@@H]3[C@@H](O)C[C@@H]4C[C@H](O)CC[C@]4(C)[C@H]3CC[C@]12C [GUDCA, glycoursodeoxycholic acid]
effect on farnesoid X receptor (FXR) [1]: directly inhibited
neuronal oxidative damage induced by bilirubin [2]: can be inhibited

CO[C@H]1/C=C/O[C@@]2(C)Oc3c(C)c(O)c4c(O)c(c5c(nc6cc(C)ccn65)c4c3C2=O)NC(=O)/C(C)=C\C=C\[C@H](C)[C@H](O)[C@@H](C)[C@@H](O)[C@@H](C)[C@H](OC(C)=O)[C@@H]1C [rifaximin]
response to HE treatment (hepatic encephalopathy): responded well
